target: 5-hydroxytryptamine receptors of the sub-type 1 (5-HT1 receptor); experiment: Affinity to the 5-HT1 receptor: receptor binding studies using calf hippocampus membrane preparations, 3H-serotonin as radioactively labelled ligand; settings: calf hippocampus membranes; 3H-serotonin radioligand
Experimental: In Table 1, as an example, the high affinity of the compounds according to the invention to 5-hydroxytryptamine receptors of the sub-type 1 is shown. The values specified are data which were determined from receptor binding studies using calf hippocampus membrane preparations. 3 H-serotonin was used for this purpose as radioactively labelled ligand.

Question: `CCCN(CCC)C1CCc2cccc(Cl)c2C1` (stereo not shown) [Example 1, 2-Dipropylamino8-chloro-1,2,3,4-tetrahydronaphthalene] was tested. Which Ki did it give?
Answer: Its Ki is 0.02 µM.

Question: How did the Ki turn out when `CCCN(CCC)C1CCc2cccc(Br)c2C1` (stereo not shown) [Example 2, 2-Dipropylamino-8-bromo-1,2,3,4-tetrahydronaphthalene] was run?
Answer: Its Ki is 0.013 µM.

Question: `CCCN(CCC)C1CCc2cccc(C(N)=O)c2C1` (stereo not shown) [Example 6, 2-Dipropylamino-8-carbamoyl-1,2,3,4-tetrahydronaphthalene] was tested. Which Ki did it give?
Answer: Its Ki is 0.007 µM.

Question: Which Ki does the source give for `CCCCS(=O)(=O)NCCOc1cccc2c1CC(N(CCC)CCC)CC2` (stereo not shown) [Example 26, 2-Dipropylamino-8-(2-butanesulphonamidoethoxy)-1,2,3,4-tetrahydronaphthalene] here?
Answer: Its Ki is 0.017 µM.

Question: How did the Ki turn out when `CCCN(CCC)C1CCc2cccc(OCCNC(=O)OCC)c2C1` (stereo not shown) [Example 28, 2-Dipropylamino-8-(2-ethoxycarbonylamido-ethoxy)1,2,3,4-tetrahydronaphthalene] was run?
Answer: The Ki was 0.004 µM.

Question: For `CCCN(CCC)C1CCc2cccc(OCCNC(N)=O)c2C1` (stereo not shown) [Example 30, 2-Dipropylamino-8-ureidoethoxy-1,2,3,4-tetrahydronaphthalene], which Ki is on record?
Answer: Its Ki is 0.03 µM.

Question: With `CCCN(CCC)C1CCc2cccc(OCCNC=O)c2C1` (stereo not shown) [Example 33, 2-Dipropylamino-8-(2-formylamido-ethoxy)-1,2,3,4-tetrahydronaphthalene] as the molecule, how does the Ki read?
Answer: The Ki was 0.019 µM.

Question: Which Ki does the source give for `CCCN(CCC)C1CCc2cccc(CCNC(=O)OCc3ccccc3)c2C1` (stereo not shown) [Example 42, 2-Dipropylamino-8-(2-benzyloxycarbonylamido-ethyl)-2,3,4-tetrahydronaphthalene] here?
Answer: Its Ki is 0.005 µM.

Question: How did the Ki turn out when `CCCN(CCC)C1CCc2cccc(OC)c2C1` (stereo not shown) [R^1 =OCH3, R^2 =R^3 =nC3 H7, reference compound] was run?
Answer: Its Ki is 0.003 µM.

Question: With `CCCN(CCC)C1CCc2cccc(O)c2C1` (stereo not shown) [R^1 =OH, R^2 =R^3 =nC3 H7, reference compound] as the molecule, how does the Ki read?
Answer: The Ki was 0.002 µM.

Source: patent US4968679A, “8-substituted 2-aminotetralins” (Bayer Aktiengesellschaft, priority 1986, dated 1990)
